Molecules are shown by their SMILES.

This test addresses SRPK1 (Homo sapiens). The test can be described thus: In vitro inhibition of SR protein kinase 1 by compound dissolved in 100% DMSO using 5''-[gamma-33P]-triphosphate.
As usually defined, the IC50 is the midpoint of a concentration-inhibition curve. Read a low IC50 as higher potency. Turning to `Oc1cc2nc(-c3cccs3)c(-c3cccs3)nc2cc1O` [2,3-Di-thiophen-2-yl-quinoxaline-6,7-diol], the IC50 is 9610 nM.

`O=C(O)CCc1ccc(-c2nc3cc4ccccc4cc3nc2-c2ccc(CCC(=O)O)s2)s1` [3-(5-{3-[5-(2-Carboxy-ethyl)-thiophen-2-yl]-benzo[g]quinoxalin-2-yl}-thiophen-2-yl)-propionic acid] had an IC50 of 870 nM.

`c1csc(-c2nc3cc4ccccc4cc3nc2-c2cccs2)c1` [2,3-Di-thiophen-2-yl-benzo[g]quinoxaline] gave an IC50 of 1360 nM.

`COc1cc2nc3nc(-c4cccs4)c(-c4cccs4)nc3nc2cc1OC` [7,8-Dimethoxy-2,3-di-thiophen-2-yl-pyrazino[2,3-b]quinoxaline] registered an IC50 of 1140 nM.

In the case of `COC(=O)Cc1csc(-c2nc3cc4ccccc4cc3nc2-c2cc(CC(=O)OC)cs2)c1` [{5-[3-(4-Methoxycarbonylmethyl-thiophen-2-yl)-benzo[g]quinoxalin-2-yl]-thiophen-3-yl}-acetic acid methyl ester], 11800 nM corresponded to half-maximal inhibition (IC50).

`c1csc(-c2nc3cc4c(cc3nc2-c2cccs2)OCCO4)c1` [6,7-Di-thiophen-2-yl-2,3-dihydro-1,4-dioxa-5,8-diaza-anthracene] showed an IC50 of 23400 nM.

The compound `COc1cc2nc(-c3cccs3)c(-c3cccs3)nc2cc1OC` [6,7-Dimethoxy-2,3-di-thiophen-2-yl-quinoxaline] showed an IC50 of 16300 nM.

On to `O=C(O)C1COc2cc3nc(-c4cccs4)c(-c4cccs4)nc3cc2O1` (stereo unspecified) [6,7-Di-thiophen-2-yl-2,3-dihydro-1,4-dioxa-5,8-diaza-anthracene-2-carboxylic acid], for which half-maximal inhibition (IC50) was put at 950 nM.

The compound `O=C(O)CCCc1ccc(-c2nc3cc4ccccc4cc3nc2-c2ccc(CCCC(=O)O)s2)s1` [4-(5-{3-[5-(3-Carboxy-propyl)-thiophen-2-yl]-benzo[g]quinoxalin-2-yl}-thiophen-2-yl)-butyric acid] yielded an IC50 of 820 nM.

`COC(=O)CCc1ccc(-c2nc3cc4ccccc4cc3nc2-c2ccc(CCC(=O)OC)s2)s1` [3-(5-{3-[5-(2-Methoxycarbonyl-ethyl)-thiophen-2-yl]-benzo[g]quinoxalin-2-yl}-thiophen-2-yl)-propionic acid methyl ester]: the IC50 was determined as 6130 nM.

Consider `O=C(O)c1ccc2cc3nc(-c4cccs4)c(-c4cccs4)nc3cc2c1` [2,3-Di-thiophen-2-yl-benzo[g]quinoxaline-7-carboxylic acid], for which the midpoint of inhibition, the IC50, lay at 40 nM.

For the origin of these results see BindingDB's records for doi:10.1016/j.bmcl.2005.04.064 (Semmelweis University, 2005).
